{"source": "paper PMC5653977", "about": "(EMBO Molecular Medicine, 2017)", "key": {"Nrg1-tg and wt mice [1]": {"tested_on": "Nrg1-tg and wt mice", "assay": "Open field test", "assay_type": "in vivo, mouse", "details": "50 mg/kg s.c. daily", "experimental": "(§1) For behavioral testing, age‐matched male mice (8–16 weeks) on C57Bl/6 background that constitutively overexpress the 2xHA‐tagged Nrg1 type III β1a isoform (Nrg1‐tg) under the control of the mouse Thy1.2 promoter (Velanac et al, 2012) and their wild‐type (wt) littermates as controls were used. Animals were group‐housed in the same ventilated sound‐attenuated rooms under a 12‐h light/12‐h dark schedule (lights on at 8:00 am) at an ambient temperature of 21°C with food and water available ad libitum. One week prior to experiments, mice were separated into single cages and habituated to the experimental rooms. To minimize the influence of the circadian rhythm on drug actions, the treatment groups were analyzed at balanced time points during the light phase. […] All animal experiments were conducted in accordance with NIH principles of laboratory animal care and were approved by the Government of Lower Saxony, Germany, in accordance with the German Animal Protection Law.\n(§2) Treatment was continued throughout the behavioral analysis period. To avoid injection‐induced stress prior to behavioral testing, mice were injected in the afternoon, after the entire cohort has completed the behavioral paradigm.\nSpontaneous locomotor activity was verified in the open‐field test using a Plexiglas box (45 × 45 × 55 cm). The same test arena was modified with a floor insert containing 16 symmetrically allocated holes for the hole board test. During a 10‐min testing session, mouse behavior was monitored by infrared sensors and recorded by the ActiMot software (TSE, Bad Homburg, Germany). Levels of urination (scored in events) and defecation (scored as feci in events) were determined manually during the open‐field test."}, "Limk1": {"tested_on": "Limk1", "assay": "Western blot of phospho-Limk1 in prefrontal cortex of spironolactone-treated mice", "assay_type": "in vivo, mouse", "details": "Nrg1-tg mice, 50 mg/kg s.c. daily for 21 days, prefrontal cortex lysates", "experimental": "(§3) For the generation of lysates, the isolated tissue was immediately placed into cooled (4°C) sucrose buffer (320 mM sucrose, 10 mM Tris–HCl, 1 mM NaHCO3, 1 mM MgCl2, supplemented with 10 mM NaF, 1 mM […], 1 mM ZnCl2, 4.5 mM Na4P20_7 as phosphatase inhibitors, and the complete protease inhibitor cocktail (Roche)), homogenized using an ultra‐turrax (IKA GmbH, Staufen, Germany), sonicated (3 pulses for 10 s), and denatured for 10 min at 70°C in LDS sample buffer.\n(§4) Each blot was replicated two times.\nas §2"}, "Nrg1-tg and wt mice [2]": {"tested_on": "Nrg1-tg and wt mice", "assay": "Tail suspension test", "assay_type": "in vivo, mouse", "details": "50 mg/kg s.c. daily", "experimental": "as §1, §2"}, "[3]": {"tested_on": "pyramidal neurons of the prefrontal cortex", "assay": "Spontaneous inhibitory postsynaptic currents (sIPSCs) in acute prefrontal cortex slices", "assay_type": "cell-based, mouse", "details": "10 μM, bath application", "experimental": "300‐μm‐thick transverse slices comprising the medial prefrontal cortex (mPFC) area were prepared from 7‐ to 8‐week‐old C57Bl/6 mice as described previously (Teng et al, 2013; Agarwal et al, 2014). All recordings were performed in cortical layer V projection neurons. The bath solution consisted of oxygenated artificial cerebrospinal fluid (ACSF) containing NaCl 126 mM, KCl 3 mM, NaH2PO4 1.25 mM, MgSO4 1 mM, NaHCO3 26 mM, CaCl2 2 mM, glucose 10 mM, and the pH 7.2 adjusted with NaOH. Spontaneous GABAergic inhibitory postsynaptic currents (sIPSC) and evoked GABAergic inhibitory postsynaptic currents (eIPSC) were recorded at a holding potential of −70 mV in the presence of 6‐cyano‐7‐nitroquinoxaline‐2,3‐dione (CNQX, 10 μM) and DL‐2‐amino‐5‐phosphonovaleric acid (D‐APV, 50 μM). Glass pipettes were filled with the solution containing: KCl 140 mM, MgCl2 2 mM, CaCl2 1 mM, Na2GTP 0.5 mM, Na2ATP 4 mM, EGTA 10 mM, HEPES 10 mM. Patches with a series resistance of > 25 MΩ, a membrane resistance of < 0.8 GΩ, or leak currents of > 150 pA were excluded. Biphasic rectangular electric pulses (10 ms, 100–300 μA) were applied to layer I of the prelimbic area of mPFC through another glass pipette filled with ACSF. Synaptic currents were acquired at 20 kHz and filtered at 6 kHz, with a Digidata 1440 ADC‐converter coupled to a Multiclamp 700B amplifier (Molecular Devices, USA). Data acquisition was performed using pClamp10 software (Molecular Devices). MiniAnalysis 6.0.9 (Synaptosoft Inc., Decatur, USA) and pClamp10.1 were used for amplitude and frequency analysis of sIPSCs and eIPSCs, respectively. Paired Student's t‐test was used for statistical analysis."}, "[4]": {"parameters": "method as in Zhou et al, 2011; Rimmele et al, 2013", "details": "acute administration; ref Zhou et al, 2011; Rimmele et al, 2013; cited from earlier work"}, "TEV protease": {"molecular_target": "T1, TEV protease (Tobacco etch virus, UniProt P04517)", "T1 construct": "a transmembrane‐localized TEV protease (TM‐TEV) was expressed in PC12 cells; expressed in transfected cells; host or cells: PC12 Tet-Off cells (rat)", "T1 sequence (P04517 2038-2279)": "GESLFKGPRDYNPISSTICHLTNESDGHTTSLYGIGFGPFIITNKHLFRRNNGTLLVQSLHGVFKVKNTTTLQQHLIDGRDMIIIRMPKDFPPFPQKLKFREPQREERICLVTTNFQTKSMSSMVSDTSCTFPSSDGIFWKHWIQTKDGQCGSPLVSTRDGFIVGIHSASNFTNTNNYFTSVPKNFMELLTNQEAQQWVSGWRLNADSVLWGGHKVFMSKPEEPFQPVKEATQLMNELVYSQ", "assay": "TEV protease activity control assay (TM-TEV/TM-tevS-GV)", "assay_type": "cell-based", "details": "TM-TEV, TM-tevS-GV and 10×UAS-Fluc in PC12 cells", "text": "All counts (407 compounds and 96 controls) from the Nrg1‐ERBB4‐PIK3R1 split TEV compound screen were plotted against the z‐score using Mondrian, with pathway activators displaying high values and inhibitors low values. For the secondary analysis, we selected all candidates that were at least three standard deviations away from the mean. […] For the GAL4/UAS assay, GAL4‐VP16 (GV) and 10×UAS firefly luciferase (10×UAS‐Fluc) plasmids were transfected into PC12 cells. For TEV protease activity assays, a transmembrane‐localized TEV protease (TM‐TEV) was expressed in PC12 cells with a transmembrane‐localized and TEV‐cleavable GV (TM‐tevS‐GV) and the 10×UAS‐Fluc reporter. […] EGFld was applied as Nrg1 stimulus. In both control assays, the assay activity (firefly luciferase, black lines) was similar to the toxicity levels (gray lines). Data are shown as mean, a nd error bars represent SEM, n = 6. The insets depict IC50 values in μM."}, "AKT": {"tested_on": "AKT", "assay": "Western blot of pAKT in prefrontal cortex of spironolactone-treated mice", "assay_type": "in vivo, mouse", "details": "Nrg1-tg and wt mice, 50 mg/kg s.c. daily for 21 days, prefrontal cortex lysates", "experimental": "as §3, §4, §2"}}}
{"smiles": "CC(=O)S[C@@H]1CC2=CC(=O)CC[C@]2(C)[C@H]2CC[C@@]3(C)[C@@H](CC[C@@]34CCC(=O)O4)[C@H]12", "note": "[Spironolactone]", "values": [{"measurement": "defecation in the open-field test", "setting": "Nrg1-tg and wt mice [1]", "result": "no effect of treatment observed"}, {"measurement": "time in the center of the open-field arena", "setting": "Nrg1-tg and wt mice [1]", "result": "did not influence this parameter"}, {"measurement": "urination in the open-field test", "setting": "Nrg1-tg and wt mice [1]", "result": "without effect of treatment"}, {"measurement": "locomotor hyperactivity (distance in the open-field arena)", "setting": "Nrg1-tg and wt mice [1]; Nrg1-tg mice", "result": "reverted"}, {"measurement": "phospho-Limk1 levels", "setting": "Limk1", "result": "markedly upregulated"}, {"measurement": "time active in the tail suspension test (genotype effect)", "setting": "Nrg1-tg and wt mice [2]", "result": "independent of treatment"}, {"measurement": "sIPSC amplitude", "setting": "[3]", "result": "increase"}, {"measurement": "sIPSC frequency", "setting": "[3]", "result": "increase"}, {"measurement": "memory retrieval in healthy human volunteers", "setting": "[4]", "result": "reduced memory retrieval"}, {"measurement": "effect on activity of the TEV protease", "setting": "TEV protease", "result": "does not affect activities of control assays"}, {"measurement": "pAKT (downstream signaling)", "setting": "AKT", "result": "neither modulated by Nrg1 overexpression, nor by spironolactone treatment"}]}
